The record followed here is patent publication US20190175571A1, “IMIDAZOLE DERIVATIVES AND THEIR USE IN THE TREATMENT OF AUTOIMMUNE OR INFLAMMATORY DISEASES OR CANCERS” (GLAXOSMITHKLINE INTELLECTUAL PROPERTY (NO.2) LIMITED, priority 2016, published 2019).

Bounds are passed on as bounds.

One data set addresses T1, BRD2 BD2 (Homo sapiens, UniProt P25440, Y113A).
T1 construct: BRD2 (1-473) (Y113A) and (Y386A); made in house; host or cells: E. coli (pET15b)
In words: TR-FRET competition assay, BRD2 BD2. The conditions noted are these: TR-FRET competition with Reference Compound X; range stated for the listed group; read-out: mean pIC50 in the BRD2 BD2 assay (converted). Format: binding. On the technique in general: Time-resolved FRET reads energy transfer from a long-lived donor to a nearby acceptor.

Another data set deals with T2, BRD2 BD1 (Homo sapiens, UniProt P25440, Y386A).
T2 construct: BRD2 (1-473) (Y113A) and (Y386A); made in house; host or cells: E. coli (pET15b)
In words: TR-FRET competition assay, BRD2 BD1. Particulars: TR-FRET competition with Reference Compound X; range stated for the listed group; read-out: mean pIC50 in the BRD2 BD1 assay (converted). Format: binding.

In a further data set the target is T3, BRDT BD1 (Homo sapiens, UniProt Q58F21, Y309A).
T3 construct: BRDT (1-397) (Y66A) and (Y309A); made in house; host or cells: E. coli (pET28a)
In words: TR-FRET competition assay, BRDT BD1. Format: binding. Particulars: TR-FRET competition with Reference Compound X; range stated for the listed group; read-out: mean pIC50 in the BRDT BD1 assay (converted).

In another data set the target is T4, BRDT BD2 (Homo sapiens, UniProt Q58F21, Y66A).
T4 construct: BRDT (1-397) (Y66A) and (Y309A); made in house; host or cells: E. coli (pET28a)
In words: TR-FRET competition assay, BRDT BD2. The data set is classed as binding. The conditions noted are these: TR-FRET competition with Reference Compound X; range stated for the listed group; read-out: mean pIC50 in the BRDT BD2 assay (converted).

The next data set deals with T5, BRD3 BD1 (Homo sapiens, UniProt Q15059, Y348A).
T5 construct: BRD3 (1-435) (Y73A) and (Y348A); made in house; host or cells: E. coli (pET15b)
In words: TR-FRET competition assay, BRD3 BD1. The data set is classed as binding. The conditions noted are these: TR-FRET competition with Reference Compound X; range stated for the listed group; read-out: mean pIC50 in the BRD3 BD1 assay (converted).

Data set [1] has as its system TNP-KLH induced Immunoglobulin-1 (IgG1) production. In words: TNP-KLH induced IgG1 production mouse assay. Format: in vivo. Particulars: for Day 14 IgG1: male CD1 mice.
Another data set has as its target T6, BRD4 BD2 (Homo sapiens, UniProt O60885, Y97A).
T6 construct: BRD4 (1-477) (Y97A) and (Y390A); made in house; host or cells: E. coli (pET15b)
In words: TR-FRET competition assay, BRD4 BD2. The data set is classed as binding. Particulars: TR-FRET competition with Reference Compound X, single mutant tandem protein; read-out: mean pIC50 in the BRD4 BD2 assay (converted).

In the next data set the test system is MCP-1 production. The data set is described as follows: LPS induced MCP-1 production from human whole blood. The data set is classed as cell-based. The conditions noted are these: human whole blood, LPS 200 ng/mL, 18-24 hours; read-out: mean pIC50, LPS induced MCP-1 production (converted).
Another data set concerns the target T7, BRD4 BD1 (Homo sapiens, UniProt O60885, Y390A).
T7 construct: BRD4 (1-477) (Y97A) and (Y390A); made in house; host or cells: E. coli (pET15b)
In words: TR-FRET competition assay, BRD4 BD1. The data set is classed as binding. Particulars: TR-FRET competition with Reference Compound X, single mutant tandem protein; read-out: mean pIC50 in the BRD4 BD1 assay (converted).

A further data set concerns the target T8, BRD3 BD2 (Homo sapiens, UniProt Q15059, Y73A).
T8 construct: BRD3 (1-435) (Y73A) and (Y348A); made in house; host or cells: E. coli (pET15b)
In words: TR-FRET competition assay, BRD3 BD2. The data set is classed as binding. Particulars: TR-FRET competition with Reference Compound X; range stated for the listed group; read-out: mean pIC50 in the BRD3 BD2 assay (converted).

The subject of data set [2] is double mutant tandem BET proteins (BRD2, BRD3, BRD4, BRDT). In words: Fluorescence Polarisation binding of Reference Compound X to mutant tandem BET proteins. Also noted: species or system human.

T1 sequence (P25440 1-473 Y113A): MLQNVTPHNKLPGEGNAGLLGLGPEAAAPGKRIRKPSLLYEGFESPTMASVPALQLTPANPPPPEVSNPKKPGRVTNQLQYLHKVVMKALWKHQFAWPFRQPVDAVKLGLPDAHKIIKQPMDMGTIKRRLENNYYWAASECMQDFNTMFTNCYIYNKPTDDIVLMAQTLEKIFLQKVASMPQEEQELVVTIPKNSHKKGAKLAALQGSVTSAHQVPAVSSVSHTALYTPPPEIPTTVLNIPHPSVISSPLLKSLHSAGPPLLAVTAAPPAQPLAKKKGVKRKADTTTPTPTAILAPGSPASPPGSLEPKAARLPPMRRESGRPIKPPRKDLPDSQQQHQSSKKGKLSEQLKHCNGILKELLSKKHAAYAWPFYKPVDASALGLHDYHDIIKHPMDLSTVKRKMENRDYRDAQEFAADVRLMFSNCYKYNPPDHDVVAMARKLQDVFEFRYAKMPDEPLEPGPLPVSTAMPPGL
T5 sequence (Q15059 1-435 Y348A): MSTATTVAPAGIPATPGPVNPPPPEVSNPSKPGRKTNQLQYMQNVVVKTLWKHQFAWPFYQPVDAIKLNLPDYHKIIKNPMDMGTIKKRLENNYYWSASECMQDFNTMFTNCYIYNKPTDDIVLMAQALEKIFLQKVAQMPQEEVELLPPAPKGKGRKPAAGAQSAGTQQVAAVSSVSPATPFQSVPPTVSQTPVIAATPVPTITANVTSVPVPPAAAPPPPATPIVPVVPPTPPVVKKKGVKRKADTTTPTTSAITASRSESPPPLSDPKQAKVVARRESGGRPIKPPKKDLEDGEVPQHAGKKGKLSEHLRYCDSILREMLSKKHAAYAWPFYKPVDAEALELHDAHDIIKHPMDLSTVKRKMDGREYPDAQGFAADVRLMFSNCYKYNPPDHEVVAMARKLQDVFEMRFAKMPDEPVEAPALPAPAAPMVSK
T2 sequence (P25440 1-473 Y386A): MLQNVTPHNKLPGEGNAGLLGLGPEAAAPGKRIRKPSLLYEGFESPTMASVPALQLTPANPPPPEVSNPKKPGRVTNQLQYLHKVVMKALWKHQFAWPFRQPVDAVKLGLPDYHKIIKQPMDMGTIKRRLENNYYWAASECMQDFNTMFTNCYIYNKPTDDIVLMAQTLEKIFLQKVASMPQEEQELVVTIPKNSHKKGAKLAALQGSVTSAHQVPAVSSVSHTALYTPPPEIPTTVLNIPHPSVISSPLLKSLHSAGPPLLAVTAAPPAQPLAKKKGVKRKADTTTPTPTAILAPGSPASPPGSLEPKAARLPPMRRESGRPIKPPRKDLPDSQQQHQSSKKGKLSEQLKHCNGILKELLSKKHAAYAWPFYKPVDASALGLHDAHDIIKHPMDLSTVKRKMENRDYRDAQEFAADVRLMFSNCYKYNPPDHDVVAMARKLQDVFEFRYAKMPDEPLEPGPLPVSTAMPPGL
T8 sequence (Q15059 1-435 Y73A): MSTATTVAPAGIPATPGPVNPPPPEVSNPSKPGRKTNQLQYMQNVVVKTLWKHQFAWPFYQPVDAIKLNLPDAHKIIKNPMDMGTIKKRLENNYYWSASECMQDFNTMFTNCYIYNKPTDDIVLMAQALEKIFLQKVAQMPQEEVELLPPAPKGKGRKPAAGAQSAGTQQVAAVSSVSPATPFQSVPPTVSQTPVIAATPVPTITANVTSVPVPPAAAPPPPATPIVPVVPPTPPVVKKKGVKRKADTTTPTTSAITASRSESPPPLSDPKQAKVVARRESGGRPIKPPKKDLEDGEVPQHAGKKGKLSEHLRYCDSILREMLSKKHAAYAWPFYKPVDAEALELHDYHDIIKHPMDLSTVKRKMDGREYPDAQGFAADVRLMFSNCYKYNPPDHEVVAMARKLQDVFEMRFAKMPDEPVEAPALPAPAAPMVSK

On to `Cc1cc(-c2ncc[nH]2)cn(C)c1=O` [Example 1, 5-(1H-imidazol-2-yl)-1,3-dimethylpyridin-2(1H)-one], for which the IC50 is 1000 to 50100 nM at BRD2 BD2, 12.6 to 7940 nM on BRD2 BD1, 39.8 to 12600 nM on BRDT BD1 and greater than 50100 nM on BRDT BD2.

Consider `Cc1cc(-c2nc(Cl)cn2CC2CCOCC2)cn(C)c1=O` [Example 30, 5-(4-chloro-1-((tetrahydro-2H-pyran-4-yl)methyl)-1H-imidazol-2-yl)-1,3-dimethylpyridin-2(1H)-one], for which the IC50 on BRD3 BD1 is 20 to 79.4 nM. Moreover, the “% reduction in IgG1 from vehicle” value is on record as 0% in data set [1] (day 14, 1.5 mg/kg BID oral); 86*** % in data set [1] (day 14, 5.0 mg/kg BID oral, ***P<0.01); 99*** % in data set [1] (day 14, 15 mg/kg BID oral, ***P<0.01). Further, the “Day 14 IgG1” value is 5.01 ± 3.30 µg/mL in data set [1] (1.5 mg/kg BID oral, 14 days); 0.85 ± 1.18 µg/mL in data set [1] (5.0 mg/kg BID oral, 14 days); 0.03 ± 0.03 µg/mL in data set [1] (15 mg/kg BID oral, 14 days). Besides, the “adverse side effects during in life phase” value in [1] (male CD1 mice, 1.5, 5 or 15 mg/kg BID oral, 14 days) was “No adverse side effects were observed”.

For `Cc1cc(-c2nccn2CC2CCOCC2)cn(C)c1=O` [Example 6, 1,3-dimethyl-5-(1-((tetrahydro-2H-pyran-4-yl)methyl)-1H-imidazol-2-yl)pyridin-2(1H)-one], the IC50 at BRD2 BD2 was 1000 to 50100 nM; at BRD2 BD1, 12.6 to 7940 nM; on BRDT BD1, 39.8 to 12600 nM; on BRDT BD2, 2000 to 25100 nM.

For `COCC(COC)n1cc(Cl)nc1-c1cc(C)c(=O)n(C)c1` [Example 22, 5-(4-chloro-1-(1,3-dimethoxypropan-2-yl)-1H-imidazol-2-yl)-1,3-dimethylpyridin-2(1H)-one], the figures for the IC50 at BRD4 BD2, in the data set with MCP-1 production and on BRD4 BD1 were 2000 nM, 100 nM and 50.1 nM, respectively.

Take `Cc1cc(-c2nc(Cl)cn2CC2CCCOC2)cn(C)c1=O` (single isomer, unassigned) [Example 29, 5-(4-chloro-1-((tetrahydro-2H-pyran-3-yl)methyl)-1H-imidazol-2-yl)-1,3-dimethylpyridin-2(1H)-one]: the IC50 on BRD2 BD2 was 1000 to 50100 nM; on BRD3 BD1, 20 to 79.4 nM; on BRD2 BD1 it was 12.6 to 7940 nM; at BRDT BD1, 39.8 to 12600 nM; on BRD3 BD2, 251 to 1000 nM; on BRDT BD2, 2000 to 25100 nM.

In the case of `CC(=O)N1CCCC(Cn2cc(Cl)nc2-c2cc(C)c(=O)n(C)c2)C1` (single isomer, unassigned) [Example 25, 5-(1-((1-acetylpiperidin-3-yl)methyl)-4-chloro-1H-imidazol-2-yl)-1,3-dimethylpyridin-2(1H)-one], the IC50 on BRD2 BD2 is 1000 to 50100 nM; on BRD3 BD1, 20 to 79.4 nM; on BRD2 BD1, 12.6 to 7940 nM; on BRDT BD1, 39.8 to 12600 nM; on BRD3 BD2 it was 251 to 1000 nM; on BRDT BD2, 2000 to 25100 nM.

Consider `Cc1cc(-c2nccn2CC(C)C)cn(C)c1=O` [Example 5, 5-(1-isobutyl-1H-imidazol-2-yl)-1,3-dimethylpyridin-2(1H)-one], for which the IC50 was 1000 to 50100 nM at BRD2 BD2, 12.6 to 7940 nM on BRD2 BD1, 39.8 to 12600 nM at BRDT BD1 and 2000 to 25100 nM on BRDT BD2.

In the case of `Cc1cc(-c2nccn2CC2CCCCO2)cn(C)c1=O` (racemic) [Example 7, rac-1,3-dimethyl-5-(1-((tetrahydro-2H-pyran-2-yl)methyl)-1H-imidazol-2-yl)pyridin-2(1H)-one], the IC50 at BRD2 BD2 was 1000 to 50100 nM; on BRD2 BD1, 12.6 to 7940 nM; at BRDT BD1, 39.8 to 12600 nM; at BRDT BD2, 2000 to 25100 nM.

Turning to `Cc1cc(-c2nc(C(=O)O)cn2CC2CCOCC2)cn(C)c1=O` [Example 35, 2-(1,5-dimethyl-6-oxo-1,6-dihydropyridin-3-yl)-1-((tetrahydro-2H-pyran-4-yl)methyl)-1H-imidazole-4-carboxylic acid], in the data set with MCP-1 production, the IC50 is greater than 20000 nM.

With `Cc1cc(-c2nccn2CC2CC2)cn(C)c1=O` [Example 3, 5-(1-(cyclopropylmethyl)-1H-imidazol-2-yl)-1,3-dimethylpyridin-2(1H)-one], the IC50 was 1000 to 50100 nM at BRD2 BD2, 12.6 to 7940 nM at BRD2 BD1, 39.8 to 12600 nM on BRDT BD1 and 2000 to 25100 nM at BRDT BD2.

Turning to `COc1ccc2c(c1)C(c1ccc(Cl)cc1)=N[C@@H](CC(=O)NCCCCCNC(=O)CCCCCC1(C)/C(=C/C=C/C=C/C3=[N+](CCCCS(=O)(=O)O)c4ccc(S(=O)(=O)O)cc4C3(C)C)N(CCCCS(=O)(=O)[O-])c3ccc(S(=O)(=O)O)cc31)c1nnc(C)n1-2` (stereo partly drawn) [Reference Compound X], the “reduction in Kd versus non mutated, wild type tandem BET proteins” value in data set [2] is recorded as greater than 1000 fold.
